Data on one compound can be found in US11833137B2, “Substituted chromenones, IRE1 inhibitors, and methods of using same” (The Wistar Institute, priority 2018, dated 2023).

The subject of this assay is CLL cells in PBMCs. As to the kind of experiment: CLL burden in B-I09-injected MD4+/−/Eμ-TCL1+/+ mice. The class given is in vivo, mouse. The note with it: 50 mg/kg intraperitoneally, days 1-5 and 8-12. How it is done:
FIGS. 24A-24J illustrate the finding that targeting XBP-1s in CLL cells of MD4^+/−/Eμ-TCL1^+/+ mice leads to reduced production of sIgM, and decreased numbers and function of granulocytic MDSCs. (FIG. 24A) The levels of IgM in the sera of MD4^+/−/Eμ-TCL1^+/+ and XBP-1^KO/MD4^+/−/Eμ-TCL1^+/+ mice were determined by ELISA. (FIG. 24B) Blood cells collected from MD4^+/−/Eμ-TCL1^+/+ and XBP-1^KO/MD4^+/−/Eμ-TCL1^+/+ mice were treated with RBC lysis buffer, and stained with CD11c-BV421, CD11b-PE, Ly6C-Alexa 488 and Ly6G-Alexa 647. Gated CD11c−/CD11b+ populations were analyzed for Ly6C^intermediate/Ly6G+ granulocytic MDSCs and Ly6C+/Ly6G− monocytic MDSCs. […] Gated CD11b+/Ly6C^intermediate/Ly6G+ granulocytic MDSCs were analyzed for the expression of Arg-1. (FIG. 24F) Mean fluorescence intensity (MFI) of Arg-1 in gated CD11b+/Ly6C^intermediate/Ly6G+ granulocytic MDSCs from spleens of 5 MD4^+/−/Eμ-TCL1^+/+ and 5 XBP-1^KO/MD4^+/−/Eμ-TCL1^+/+ mice was plotted as mean±SEM. […] The ^3H-thymidine uptake was measured, and the percentages of proliferation were calculated by comparing to the positive control and plotted as mean±SEM. […] The percentage of CLL cells in PBMCs for each mouse was determined by flow cytofluorometry on day 6 and day 13, and compared with the CLL burden data of the mouse on day 0 (100%). […]

As to `O=c1oc2c(C3OCCCO3)c(O)ccc2c2c1CNCC2` [Compound 4, 7-(1,3-dioxan-2-yl)-8-hydroxy-1,2,3,4-tetrahydro-5H-chromeno[3,4-c]pyridin-5-one], the “CLL burden in peripheral blood” value is recorded as “leukemic regression was observed”.
